Laboratory results taken from the supplement of paper PMC8960247.
Structures can show the parent of a compound that is named as a salt. ± gives the standard error.

Experiments:
621-102 (TSC2-deficient) [1] = assay: relative viability vs DMSO; higher = less cytotoxic; settings: serum: 10% FBS, 72 h
621-103 (TSC2-rescued) = assay: as above; settings: serum: 10% FBS, 72 h
621-102 (TSC2-deficient) [2] = assay: relative viability vs DMSO (fraction); higher = less cytotoxic; settings: serum: 0.1% FBS, 72 h
UMB1949 (TSC2-deficient) = assay: as above; settings: serum: 0.1% FBS, 72 h;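 further: renal angiomyolipoma cell lines screened in 384-well plates, viability normalized per plate to DMSO-treated cells, each plate carrying 50 nM rapamycin and 1 µM staurosporine controls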

SMILES | relative viability (621-102 (TSC2-deficient) [1]; 0.0001 µM) [%] | relative viability (621-102 (TSC2-deficient) [1]; 0.001 µM) [%] | relative viability (621-102 (TSC2-deficient) [1]; 0.01 µM) [%] | relative viability (621-102 (TSC2-deficient) [1]; 0.1 µM) [%] | relative viability (621-102 (TSC2-deficient) [1]; 1 µM) [%] | relative viability (621-102 (TSC2-deficient) [1]; 10 µM) [%] | relative viability (621-103 (TSC2-rescued); 0.0001 µM) [%] | relative viability (621-103 (TSC2-rescued); 0.001 µM) [%] | relative viability (621-103 (TSC2-rescued); 0.01 µM) [%] | relative viability (621-103 (TSC2-rescued); 0.1 µM) [%] | relative viability (621-103 (TSC2-rescued); 1 µM) [%] | relative viability (621-103 (TSC2-rescued); 10 µM) [%] | relative viability (621-102 (TSC2-deficient) [2]; 0.0128 nM) | relative viability (621-102 (TSC2-deficient) [2]; 0.064 nM) | relative viability (621-102 (TSC2-deficient) [2]; 0.32 nM) | relative viability (621-102 (TSC2-deficient) [2]; 1.6 nM) | relative viability (621-102 (TSC2-deficient) [2]; 8 nM) | relative viability (621-102 (TSC2-deficient) [2]; 40 nM) | relative viability (621-102 (TSC2-deficient) [2]; 200 nM) | relative viability (621-102 (TSC2-deficient) [2]; 1000 nM) | relative viability (621-102 (TSC2-deficient) [2]; 5000 nM) | relative viability (UMB1949 (TSC2-deficient); 0.0128 nM) | relative viability (UMB1949 (TSC2-deficient); 0.064 nM) | relative viability (UMB1949 (TSC2-deficient); 0.32 nM) | relative viability (UMB1949 (TSC2-deficient); 1.6 nM) | relative viability (UMB1949 (TSC2-deficient); 8 nM) | relative viability (UMB1949 (TSC2-deficient); 40 nM) | relative viability (UMB1949 (TSC2-deficient); 200 nM) | relative viability (UMB1949 (TSC2-deficient); 1000 nM) | relative viability (UMB1949 (TSC2-deficient); 5000 nM)
CO[C@H]1C[C@@H]2CC[C@@H](C)[C@@](O)(O2)C(=O)C(=O)N2CCCC[C@H]2C(=O)O[C@H]([C@H](C)C[C@@H]2CC[C@@H](OC(=O)C(C)(CO)CO)[C@H](OC)C2)CC(=O)[C@H](C)/C=C(\C)[C@@H](O)[C@@H](OC)C(=O)[C@H](C)C[C@H](C)/C=C/C=C/C=C/1C [Temsirolimus] | 40.82 ± 0.13 | 40.9 ± 3.7 | 36.1 ± 3.5 | 36.5 ± 3.5 | 41.1 ± 4.7 | 40.6 ± 4.3 | 84.1 ± 1.2 | 75.1 ± 3.1 | 78.7 ± 1.2 | 83.1 ± 3.1 | 76.9 ± 5 | 67.44 ± 0.43 | 0.696 | 0.68 | 0.714 | 0.666 | 0.524 | 0.422 | 0.263 | 0.274 | 0.171 | 0.901 | 0.874 | 0.846 | 0.894 | 0.91 | 0.816 | 0.629 | 0.415 | 0.379
Cn1cncc1[C@@](N)(c1ccc(Cl)cc1)c1ccc2c(c1)c(-c1cccc(Cl)c1)cc(=O)n2C [Tipifarnib] | 99.6 ± 4.2 | 117 ± 2.7 | 93.9 ± 2.1 | 89.4 ± 1.5 | 76.4 ± 2.5 | 63.3 ± 1.7 | 95.09 ± 0.41 | 96 ± 1.6 | 98.8 ± 1.9 | 81.5 ± 3.5 | 75.86 ± 0.6 | 64.3 ± 0.85 | 0.693 | 0.533 | 0.634 | 0.552 | 0.512 | 0.592 | 0.436 | 0.274 | 0.0644 | 0.938 | 0.909 | 0.836 | 0.961 | 0.974 | 0.798 | 0.525 | 0.25 | 0.0103
CC[C@@]1(O)C(=O)OCc2c1cc1n(c2=O)Cc2cc3c(CN(C)C)c(O)ccc3nc2-1 [Topotecan Hydrochloride] | 105 ± 5.7 | 110 ± 4.5 | 103 ± 3.6 | 80.067 ± 0.0095 | 30.3 ± 2.4 | 12.7 ± 0.7 | 106 ± 1.4 | 110.5 ± 0.33 | 102 ± 1.7 | 80.31 ± 0.015 | 26.9 ± 0.65 | 7.57 ± 0.098 | 1.03 | 0.984 | 1.06 | 0.956 | 0.888 | 0.268 | 0.0393 | 0.00545 | 0.000822 | 1.08 | 1.08 | 1.03 | 0.883 | 0.692 | 0.00466 | 0.00116 | 0.000564 | 0.0011
Cc1cc(Nc2cc(N3CCN(C)CC3)nc(Sc3ccc(NC(=O)C4CC4)cc3)n2)n[nH]1 [VX-680 (MK-0457)] | 101 ± 4.7 | 90.4 ± 2.4 | 98.8 ± 1.7 | 81.4 ± 0.96 | 76 ± 2.1 | 47.8 ± 0.98 | 99.1 ± 1.1 | 103 ± 1.9 | 100 ± 1.9 | 94.8 ± 6.2 | 78.2 ± 2 | 20.4 ± 0.69 | 1.08 | 1 | 0.776 | 0.176 | 0.0382 | 0.0452 | 0.0422 | 0.0108 | 0.00299 | 0.947 | 0.818 | 0.872 | 0.0803 | 0.0315 | 0.0297 | 0.0316 | 0.0244 | 0.0016
c1cncc(CN2CCC(n3ncc4c(N5CCOCC5)nc(-c5ccc6[nH]ccc6c5)nc43)CC2)c1 [WAY-600] | 89.809 ± 0.075 | 104 ± 2.2 | 99.7 ± 2.1 | 100 ± 1.8 | 82.5 ± 1 | 2.21 ± 0.054 | 99.7 ± 2.6 | 97.8 ± 4.8 | 103 ± 3.9 | 98.1 ± 1.8 | 54.5 ± 2.2 | 7.78 ± 0.25 | 1.07 | 1.25 | 1.04 | 1.18 | 1.21 | 1.19 | 0.798 | 0.345 | 0.00768 | 0.882 | 0.972 | 1.04 | 0.972 | 1.02 | 0.933 | 0.892 | 0.354 | 0.00636
CCC[C@H](NC(=O)/C(C#N)=C/c1cccc(Br)n1)c1ccccc1 [WP1130] | 104 ± 6 | 98.3 ± 8.2 | 99 ± 1.9 | 100 ± 3.1 | 42.6 ± 3.9 | 12.9 ± 0.62 | 99.84 ± 0.79 | 111 ± 2.8 | 109 ± 2.5 | 105 ± 1.6 | 65.6 ± 11 | 11.4 ± 1.6 | 1.37 | 1.16 | 1.59 | 1.27 | 1.4 | 1.62 | 1.11 | 0.0118 | 0.0115 | 1.14 | 0.962 | 1.13 | 1.04 | 1.02 | 1.14 | 0.0225 | 0.00218 | 0.00472
COCC[n+]1c2c(n(Cc3cnccn3)c1C)C(=O)c1ccccc1C2=O [YM155] | 119 ± 4.4 | 123 ± 2.9 | 85.19 ± 0.73 | 14.7 ± 0.34 | 2.3 ± 0.11 | 1.07 ± 0.06 | 103 ± 1.1 | 97.14 ± 0.26 | 6.98 ± 0.72 | 3.13 ± 0.25 | 1.38 ± 0.11 | 1.32 ± 0.092 | 1.26 | 1.18 | 1.05 | 1.14 | 1.01 | 0.797 | 0.0467 | 0.0022 | 0.000631 | 0.913 | 0.906 | 0.926 | 0.0628 | 0.00285 | 0.00186 | 0.00176 | 0.000862 | 0.000862
